From patent US10093674B2, “Supramolecular nanofibers and hydrogels based on nucleic acids functionalized with nucleobases” (Brandeis University, priority 2011, dated 2018)

Assays:
[1] = test system: HeLa cells; settings: 500 μM, 72 hours; for cell viability: MTT assay
Description: To verify the biocompatibility of the hydrogelators, we added hydrogelator 1 or precursor 2 into the culture of HeLa cells and measured the proliferation of the cells.

[2] = test system: alkaline phosphatase (ALP); settings: 12 h after the addition of alkaline phosphatase, 31P NMR
Description: Following the procedures reported by Nieddu for making nucleobase acetic acids, we first synthesized bis(tert-butyloxycarbonyl) (bis-Boc) protected adenine, (N^6-bis-Boc-adenine-9-yl)-acetic acid (4). After being activated by N-hydroxysuccinimide (NHS), 4 reacts with L-Phe to afford 5, which undergoes the same NHS activation and phenylalanine coupling to give the key intermediate 6.

[3] = test system: mammalian cells; settings: 500 μM, 72 hours; for cell viability: mammalian cells, MTT assay
Protocol: To verify the biocompatibility of the hydrogelators, hydrogelators 1′ and 2′ were added into a culture of mammalian cells, and the proliferation of the cells was measured.

[4] = test system: HeLa cells; settings: 500 μM 1T′ and 0.1 μM nucleic acid complex, 24 h
Protocol: HeLa cells were seeded in 2 well chamber slide at a density of 10,000 cell/well. […] After incubation at 37° C. for 24 h, we removed the culture medium, washed the cells by 1 mL PBS for 3 times, then resin the cells in 1 mL PBS. Fluorescence images were taken by using confocal fluorescence microscope. FIG. 34.

[5] = test system: HeLa cells; settings: 500 μM in medium, 20 h
Protocol: HeLa cells were re-suspended in 10 cm tissue culture dish after washing cells once with PBS. 0.8 mL 0.25% trypsin containing 0.1% EDTA was then added, and the cells were re-suspended with 1.6 mL complete medium. 5000 cells (in 100 μL medium) were plated into each vial on a 96 well plate to create a confluent monolayer. After adherent for 24 h, a wound was created by scraping the cell monolayer with a p200 pipet tip. The cells were washed once with 100 μL of complete medium to remove flowing cells and replace with 100 μL of complete medium. 0 h image was acquired as a reference point. […] 0 h and 20 h images were acquired at the match photographed region.

Row | Substance | cell viability [1] | cell viability [3] | also measured
1 | Adenine-Phe-Phe [Compound 1A] | 100% |  | 
2 | Adenine-Phe-Phe-Tyr-phosphate [Compound 2A] | 100% |  | transformation of precursor into hydrogelator [2]: completely transforms
3 | Adenine-Phe-Phe-glucosamine [2A′] |  | 90% | 
4 | Adenine-Phe-glucosamine [1A′] |  |  | cell viability (in words) [3]: decreased slightly
5 | Cytosine-Phe-Glucosamine [1C′] |  |  | cell viability (in words) [3]: decreased slightly
6 | Cytosine-Phe-Phe [Compound 1C] | 100% |  | 
7 | Cytosine-Phe-Phe-Glucosamine [2C′] |  | 90% | 
8 | Cytosine-Phe-Phe-Tyr-phosphate [Compound 2C] | 100% |  | 
9 | Guanine-Phe-Phe [Compound 1G] |  |  | cell viability (in words) [1]: decreases slightly
10 | Guanine-Phe-Phe-Tyr-phosphate [Compound 2G] |  |  | cell viability (in words) [1]: decreases slightly
11 | Guanine-Phe-Phe-glucosamine [2G′] |  | 90% | 
12 | Guanine-Phe-glucosamine [1G′] |  | 90% | 
13 | Thymine-Phe-Phe [Compound 1T] | 100% |  | 
14 | Thymine-Phe-Phe-Tyr-phosphate [Compound 2T] | 100% |  | 
15 | Thymine-Phe-Phe-glucosamine [2T′] |  | 90% | 
16 | Thymine-Phe-glucosamine [1T′] |  | 90% | delivery of FITC-labeled nucleic acid [4]: nuclear localization of DNA; effect on the migration of cells [5]: little inhibitory effect
